Test results: PMC8576328, “Broad-Spectrum Inhibitor of Bacterial Polyphosphate Homeostasis Attenuates Virulence Factors and Helps Reveal Novel Physiology of Klebsiella pneumoniae and Acinetobacter baumannii” (Frontiers in Microbiology, 2021)

How the values were obtained:
K. pneumoniae PPK1 (KP) [1] = molecular target: T1, K. pneumoniae PPK1 (KP) (Klebsiella pneumoniae, UniProt A6TCB5); test: biochemical; set-up: gene ppk
PPK1A = molecular target: T2, PPK1A (Acinetobacter baumannii, UniProt A0A0D5YJ41); test: polyP synthesis kinetics with purified enzyme, varying ATP; format: biochemical
T2 construct: gene ppk1; AB5075 PPK1A (ABUW_2072), C-terminal His6-tag

PPK1B = molecular target: T3, PPK1B (Acinetobacter baumannii, UniProt A0A0D5YLD5); test: as above; format: biochemical
T3 construct: gene ppk2; AB5075 PPK1B (ABUW_2907), N-terminal His6-tag

K. pneumoniae PPK1 (KP) [2] = molecular target: T1, K. pneumoniae PPK1 (KP); test: polyP synthesis, toluidine blue A630/[…]; format: biochemical; set-up: gene ppk; codon-optimised gene in pET28a, C-terminal His6-tag, E. coli BL21, Ni-NTA purified

T1 sequence (A6TCB5 entry or part of it): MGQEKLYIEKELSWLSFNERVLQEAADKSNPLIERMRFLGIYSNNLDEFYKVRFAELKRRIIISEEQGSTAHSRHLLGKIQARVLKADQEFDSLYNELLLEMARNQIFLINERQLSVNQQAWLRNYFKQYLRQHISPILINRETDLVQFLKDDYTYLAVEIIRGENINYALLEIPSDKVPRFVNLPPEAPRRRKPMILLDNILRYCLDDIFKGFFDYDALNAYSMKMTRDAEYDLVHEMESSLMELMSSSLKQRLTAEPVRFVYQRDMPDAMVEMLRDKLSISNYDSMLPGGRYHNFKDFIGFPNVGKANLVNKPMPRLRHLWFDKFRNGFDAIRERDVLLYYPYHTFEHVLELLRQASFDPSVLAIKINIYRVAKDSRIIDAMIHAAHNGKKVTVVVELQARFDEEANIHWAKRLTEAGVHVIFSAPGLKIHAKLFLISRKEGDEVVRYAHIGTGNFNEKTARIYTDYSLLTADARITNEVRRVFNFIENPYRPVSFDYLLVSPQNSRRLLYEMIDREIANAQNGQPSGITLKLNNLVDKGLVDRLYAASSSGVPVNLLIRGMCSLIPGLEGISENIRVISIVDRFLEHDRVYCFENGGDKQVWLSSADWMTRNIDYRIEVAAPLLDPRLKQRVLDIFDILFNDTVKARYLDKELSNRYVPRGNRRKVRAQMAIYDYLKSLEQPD
T2 sequence (A0A0D5YJ41 entry or part of it): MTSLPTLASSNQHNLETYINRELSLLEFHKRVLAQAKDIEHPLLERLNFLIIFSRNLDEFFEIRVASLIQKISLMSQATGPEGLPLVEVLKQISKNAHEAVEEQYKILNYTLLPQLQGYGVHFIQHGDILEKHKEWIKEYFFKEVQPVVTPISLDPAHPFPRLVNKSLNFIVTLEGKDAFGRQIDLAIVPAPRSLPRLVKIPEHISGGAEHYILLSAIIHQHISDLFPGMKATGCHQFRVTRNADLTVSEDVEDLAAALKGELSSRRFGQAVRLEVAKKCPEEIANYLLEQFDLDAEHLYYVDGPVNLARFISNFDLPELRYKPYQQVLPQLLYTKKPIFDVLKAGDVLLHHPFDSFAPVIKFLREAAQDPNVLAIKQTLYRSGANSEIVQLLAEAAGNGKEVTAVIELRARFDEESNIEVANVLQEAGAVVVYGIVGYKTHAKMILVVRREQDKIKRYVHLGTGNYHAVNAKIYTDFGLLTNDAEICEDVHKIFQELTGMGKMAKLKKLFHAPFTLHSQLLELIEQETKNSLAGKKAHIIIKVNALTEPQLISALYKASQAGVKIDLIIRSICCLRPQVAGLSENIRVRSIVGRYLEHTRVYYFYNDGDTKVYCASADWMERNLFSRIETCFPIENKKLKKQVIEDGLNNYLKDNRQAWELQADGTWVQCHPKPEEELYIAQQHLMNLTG
T3 sequence (A0A0D5YLD5 entry or part of it): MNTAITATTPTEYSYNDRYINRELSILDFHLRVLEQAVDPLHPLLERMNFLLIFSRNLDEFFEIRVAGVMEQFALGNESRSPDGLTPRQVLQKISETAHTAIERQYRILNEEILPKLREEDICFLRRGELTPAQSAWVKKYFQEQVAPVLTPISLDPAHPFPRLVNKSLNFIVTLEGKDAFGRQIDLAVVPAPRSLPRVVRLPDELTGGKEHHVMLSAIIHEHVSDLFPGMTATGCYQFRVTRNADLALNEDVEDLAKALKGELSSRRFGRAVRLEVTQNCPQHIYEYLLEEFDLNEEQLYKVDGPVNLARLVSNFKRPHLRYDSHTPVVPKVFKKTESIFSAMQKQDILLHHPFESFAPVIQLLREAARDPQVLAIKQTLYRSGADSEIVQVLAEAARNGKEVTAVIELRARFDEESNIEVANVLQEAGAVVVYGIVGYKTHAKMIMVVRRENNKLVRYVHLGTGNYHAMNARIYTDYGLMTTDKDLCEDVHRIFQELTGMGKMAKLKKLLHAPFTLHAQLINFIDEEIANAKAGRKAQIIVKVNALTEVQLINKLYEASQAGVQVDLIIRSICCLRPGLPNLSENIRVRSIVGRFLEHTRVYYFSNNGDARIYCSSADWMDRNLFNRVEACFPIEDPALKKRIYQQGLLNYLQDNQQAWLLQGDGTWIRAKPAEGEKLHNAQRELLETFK

Row | SMILES | Ki (K. pneumoniae PPK1 (KP) [1]) [mM] | polyP synthesis kinetics with purified enzyme, varying ATP (PPK1A) | polyP synthesis kinetics with purified enzyme, varying ATP (PPK1B) | IC50 (K. pneumoniae PPK1 (KP) [2]) [mM]
1 | Nc1ncnc2c1ncn2[C@@H]1O[C@H](COP(=O)(O)OP(=O)(O)OP(=O)(O)O)[C@@H](O)[C@H]1O [ATP] | 9.33 ± 1.69 | – | – | –
2 | O=C1OC2(c3ccccc31)c1ccc(O)c(O)c1Oc1c2ccc(O)c1O [gallein] | – | Both PPK1A and PPK1B were capable of in vitro polyP synthesis, and also exhibited inhibition by gallein | Both PPK1A and PPK1B were capable of in vitro polyP synthesis, and also exhibited inhibition by gallein | 0.0165
